Measurements published in PMC8292346, “Dysfunction of the key ferroptosis-surveilling systems hypersensitizes mice to tubular necrosis during acute kidney injury” (Nature Communications, 2021).
Where “and” joins values, the source holds several entries; their conditions need not be identical. Equal entries are not always repeated. Entries after “also recorded” stand apart in the source; their conditions may differ.

Columns and labels:
HT29 cells = assay: TSZ-induced necroptosis, 7-AAD/annexin V flow cytometry; format: cell-based, human; settings: Nec-1f 10 µM; for Protection against TSZ-induced necroptosis (7-AAD/annexin V, words): HT29, TSZ
Procedure: (§1) To induce necroptosis in a human cell line, HT29 cells were stimulated at the indicated time points with 20 ng/ml human TNFα (Biolegend), 1 μM SMAC-mimetics (Birinapant, Chemietek), and 20 μM zVAD-fmk (Selleckchem, herein referred to as zVAD). For the induction of necroptosis in NIH3T3 cells, cells were incubated with 20 ng/ml TNF-α and 20 μM zVAD for indicated time points. […] Cells were seeded in six-well plates or petri dishes. […] After indicated time points, cells were collected and prepared for flow cytometry, immunoblotting, and/or LDH release assays.
(§2) Cells were harvested and the pellets were washed twice in PBS and stained with 5 μl of 7-AAD (BD Biosciences) and 5 μl of annexin-V-FITC (BD Biosciences) added to 100 μl annexin-V binding buffer (BD Biosciences). After 15 min, cells were recorded on the LSRII with the FACS Diva 6.1.1 software (BD Biosciences) and subsequently analyzed with the FlowJo v10 software (Tree Star).

NIH3T3 cells [1] = assay: Ferroptosis inducers (FINs)/ferroptocide, 7-AAD/annexin V flow cytometry; format: cell-based, murine; settings: alone (DMSO) or with Fer-1 1 µM, Nec-1s 30 µM, Nec-1f 30 µM
Procedure: as §1, §2

[2] = Inhibited co-autoxidation of egg phosphatidylcholine liposomes and STY-BODIPY (radical-trapping antioxidant activity)
Procedure: Inhibitors were then added (5 μl aliquots) at desired concentrations to the appropriate wells followed by vigorous mixing. […] Experiments were performed in triplicate using HPLC grade solvents and kinetic data is given as an average of three independent measurements. […]

[3] = system: freshly isolated primary murine renal tubules; assay: RSL3-induced LDH release of freshly isolated kidney tubules; format: cell-based; settings: RSL3 2 h; for LDH release: freshly isolated kidney tubules, 5 mM glycine, alone (DMSO) or with Fer-1 or Nec-1f; for Effect on RSL3-induced LDH release: freshly isolated tubules, glycine medium
Procedure: The LDH release of cells or of freshly isolated kidney tubules was measured according to manufacturers’ instructions at indicated time points. In brief, an aliquot of the supernatant was taken and Lysis Solution was added for 45 min to induce maximal LDH release before another aliquot of the supernatant was taken. Subsequently, the supernatants were incubated with CytoTox 96® Reagent for 15 min protected from light at room temperature before adding Stop Solution. Absorbance was measured at 490 nm.
Primary murine renal tubules were isolated following a modified previously established protocol. […] Kidney slices of each kidney were transferred in 2 ml reaction tube containing 2 mg/ml collagenase type II in incubation solution (48 μg/ml trypsin inhibitor, 25 μg/ml DNAse I, 140 mM NaCl, 0.4 mM KH2PO4, 1.6 mM K2HPO4 · 3 H2O, 1 mM MgSO4 · 7 H2O, 10 mM CH3COONa · 3 H2O, 1 mM α-ketoglytarate and 1.3 mM Ca-gluconate) and digested for 5 min at 37 °C, 850 rpm. Due to the presence of damaged tubules, the first resulting supernatant was discarded and 1 ml of 2 mg/ml collagenase type II in incubation solution was added to the kidney slices and digested for 5 min at 37 °C, 850 rpm. The supernatant was collected and transferred in a 2 ml reaction tube containing 1 ml ice-cold sorting solution (0.5 mg/ml bovine albumin in incubation solution). The reaction tubes were left on ice for the tubules to precipitate. The supernatant was removed and the tubules were washed twice with ice-cold incubation solution. Once the tubules precipitated the supernatant was removed and the ice-cold sorting solution was added (the volume was adjusted depending on the number of samples needed for the experiment). Tubules were distributed in a twenty-four-well plate containing Dulbecco’s Modified Eagle Medium F-12 Nutrient Mixture without phenol red (DMEM/F12, Thermo Fisher), supplemented with 0.01 mg/ml recombinant human insulin, 5.5 μg/ml human transferrin, 0.005 μg/ml sodium selenite (Na2SeO3) (ITS without linoleic acid, Sigma Aldrich), 50 nM hydrocortisone, 100 U/ml penicillin, and 100 μg/ml streptomycin (Pen/Strep, Thermo Fisher).
All of the experiments performed contain a negative control to assess LDH release at 0 h of incubation as a quality control. No more than 10% LDH release in these negative controls was tolerated. […] Isolated murine renal tubules were placed in twenty four-well plates containing the respective agents diluted in Dulbecco’s Modified Eagle Medium F-12 Nutrient Mixture without phenol red (DMEM/F12, Thermo Fisher), supplemented with 0.01 mg/ml recombinant human insulin, 5.5 μg/ml human transferrin, 0.005 μg/ml Na2SeO3 (ITS without linoleic acid, Sigma Aldrich), 50 nM hydrocortisone, 100 U/ml penicillin, and 100 μg/ml streptomycin (Pen/Strep, Thermo Fisher). […]

MLKL = assay: Western blot of pMLKL (S358) in TSZ-treated HT29 cells; format: cell-based, human; settings: Nec-1s 10 µM, Fer-1 1 µM, Nec-1f 10 µM
Procedure: as §1
Cells were lysed in ice-cold 10 mM Tris-HCl, pH 7.5, 50 mM NaCl, 1% Triton X-100, 30 mM sodium pyrophosphate, 50 mM NaF, 100 μM Na3VO4, 2 μM ZnCl2, and 1 mM phenylmethylsulfonyl fluoride (PMSF, modified Frackelton buffer) for 30 min on ice. Insoluble material was removed by centrifugation (14 000×g, 30 min, 4 °C). Protein concentration was determined using a commercial Bradford assay kit according to the manufacturer’s instructions (Thermo Fisher). Equal amounts of protein (typically 30 μg per lane) were resolved on a 4%−15% gradient SDS/PAGE gel and transferred to a PVDF membrane (BIO-RAD). Primary antibody incubation was performed for anti-pS166-RIPK1 (Cell Signaling, Cat# 65746, 1:1000 dilution), anti-pS358-MLKL, (Abcam, ab187091, 1:1000 dilution), anti-MLKL (Genetex, GTX107538, 1:1000 dilution) and anti-β-Actin (Cell Signaling, Cat# 3700S, 1:1000 dilution). Secondary antibodies (anti-mouse, HRP-linked antibody, Cell Signaling, Cat# 7076S; anti-rabbit, HRP-linked antibody, Cell Signaling, Cat# 7074S) were applied at concentrations of 1:5.000 (also see Supplementary Table 1 for details). Proteins were then visualized by enhanced chemiluminescence (ECL; Amersham Biosciences).

NIH3T3 cells [4] = assay: Ferroptosis inducers (FINs)/ferroptocide, 7-AAD/annexin V flow cytometry; format: cell-based, murine; settings: for cells in 7-AAD/annexin V flow cytometry (FigS9b): individual replicates
[5] = Ferroptocide-induced cell death

In the case of `CCOC(=O)c1ccc(NC2CCCCC2)c(N)c1` [Fer-1, ferrostatin-1], the “Protection against TSZ-induced necroptosis (7-AAD/annexin V, words)” value (HT29 cells) is reported as “did not provide protection against necroptosis”, the “double-negative events (7-AAD/annexin V)” value (NIH3T3 cells [1]; NIH3T3, 1.13 µM RSL3 6 h) is reported as 90.9% and 88.3% and 95.7% and 97.7% and 79% and the “double-negative events (7-AAD/annexin V)” value (NIH3T3 cells [1]; NIH3T3, 5 µM erastin 24 h) is reported as 93.3% and 78.4% and 95.1% and 95.2%. The “double-negative events (7-AAD/annexin V)” value (NIH3T3 cells [1]; NIH3T3, 10 µM FIN56 24 h) was 94.7% and 91.5% and 96.4%, the “double-negative events (7-AAD/annexin V)” value (NIH3T3 cells [1]; NIH3T3, 10 µM FINO2 24 h) was 79% and 79.9% and 82.9% and 91% and the ΔSTY-BODIPY ([2]; 2 µM Fer-1, time 53820 s) was -0.3745 µM. For the same molecule, the ΔSTY-BODIPY ([2]; 2 µM Fer-1, time 53880 s) was -0.3737 µM, the ΔSTY-BODIPY ([2]; 2 µM Fer-1, time 53940 s) was -0.3729 µM and the ΔSTY-BODIPY ([2]; 2 µM Fer-1, time 54000 s) was -0.3705 µM. For the same molecule, the LDH release [3] was 22.94% and 23.84% and 16.99%, the “Effect on RSL3-induced LDH release” value [3] was “significantly attenuated” and the “Phosphorylation of MLKL (pS358), western blot” value (MLKL) was “did not prevent MLKL-phosphorylation”. For the same molecule, the “cells in 7-AAD/annexin V flow cytometry (FigS9b)” value (NIH3T3 cells [4]; Erastin-induced ferroptosis) was 95.0% and 94.0% and 92.0%, the “cells in 7-AAD/annexin V flow cytometry (FigS9b)” value (NIH3T3 cells [4]; FIN56-induced ferroptosis) was 94.1% and 94.0% and the “cells in 7-AAD/annexin V flow cytometry (FigS9b)” value (NIH3T3 cells [4]; FINO2-induced ferroptosis) was 90.0% and 90.2%. For the same molecule, the “cells in 7-AAD/annexin V flow cytometry (FigS9b)” value (NIH3T3 cells [4]; [5]) was 93.0% and 79.0%, the “double-negative events (7-AAD/annexin V)” value (NIH3T3 cells [4]; NIH3T3, 10 µM ferroptocide 24 h, alone (DMSO) or with Fer-1 1 µM, Nec-1s 30 µM, Nec-1f 30 µM) was 76.5% and 92.2% and 95.9% and 92.6% and the “cells in 7-AAD/annexin V flow cytometry (FigS9b)” value (NIH3T3 cells [4]; RSL3-induced ferroptosis) was 95.0% and 92.0%.
With `CN1C(=O)C(Cc2c[nH]c3c(Cl)cccc23)NC1=S` (stereo not drawn) [Nec-1f] the “7-AAD/annexin V flow cytometry, source data of bar graph Fig2e” value (HT29 cells; HT29, TSZ (TNFα 20 ng/ml, birinapant 1 µM, zVAD-fmk 20 µM) 16 h) was 80.1% and 85.8% and 92.9% and 83.9% and 82.2% and 61.2% and 88.8% and 88.1%, the “Protection against TSZ-induced necroptosis (7-AAD/annexin V, words)” value (HT29 cells) was “maintained double negativity” and the “double-negative events (7-AAD/annexin V)” value (NIH3T3 cells [1]; NIH3T3, 1.13 µM RSL3 6 h) was 88.9% and 61.8% and 72.9% and 86.1% and 70.3% and 57.8% and 80.3%. The “double-negative events (7-AAD/annexin V)” value (NIH3T3 cells [1]; NIH3T3, 10 µM FIN56 24 h) was 88.1% and 87.8% and 92.6%, the “RTA activity in co-autoxidation of egg phosphatidylcholine lipids in STY-BODIPY-embedded liposomes” value [2] was “devoid of RTA activity” and the ΔSTY-BODIPY ([2]; 2 µM Nec-1f, time 53820 s) was -0.4045 µM. For the same molecule, the ΔSTY-BODIPY ([2]; 2 µM Nec-1f, time 53880 s) was -0.4072 µM, the ΔSTY-BODIPY ([2]; 2 µM Nec-1f, time 53940 s) was -0.4054 µM and the ΔSTY-BODIPY ([2]; 2 µM Nec-1f, time 54000 s) was -0.4034 µM. The ΔSTY-BODIPY ([2]; 10 µM Nec-1f, time 53820 s) was -0.5158 µM, the ΔSTY-BODIPY ([2]; 10 µM Nec-1f, time 53880 s) was -0.5141 µM and the ΔSTY-BODIPY ([2]; 10 µM Nec-1f, time 53940 s) was -0.5142 µM. The ΔSTY-BODIPY ([2]; 10 µM Nec-1f, time 54000 s) was -0.5122 µM, the LDH release [3] was 18.43% and 23.14% and 28.56% and the “Effect on RSL3-induced LDH release” value [3] was “reduction of LDH release; also recorded: significantly attenuated”. The “Phosphorylation of MLKL (pS358), western blot” value (MLKL) was “prevented phosphorylation”, the “cells in 7-AAD/annexin V flow cytometry (FigS9b)” value (NIH3T3 cells [4]; Erastin-induced ferroptosis) was 83.1% and 77.0% and 78.0% and 47.0% and the “cells in 7-AAD/annexin V flow cytometry (FigS9b)” value (NIH3T3 cells [4]; FIN56-induced ferroptosis) was 88.0% and 64.0%. For the same molecule, the “cells in 7-AAD/annexin V flow cytometry (FigS9b)” value (NIH3T3 cells [4]; FINO2-induced ferroptosis) was 75.0% and 57.0%, the “cells in 7-AAD/annexin V flow cytometry (FigS9b)” value (NIH3T3 cells [4]; [5]) was 80.0% and 8.0% and the “cells in 7-AAD/annexin V flow cytometry (FigS9b)” value (NIH3T3 cells [4]; RSL3-induced ferroptosis) was 80.0% and 84.0%.
